Assay results reported in patent US11446282B2, “Methods of treating mixed dyslipidemia and hypertriglycertdemia” (Kowa Company, Ltd., priority 2017, dated 2022).

Legend:
[1] = tested on: patients with dyslipidemia; assay: Previous clinical trials of pemafibrate (healthy adults, patients with dyslipidemia); format: in vivo, human
Method: In previous clinical trials, pemafibrate has been administered at doses ranging from 0.1 mg to 1.6 mg per day in healthy adults. Doses up to 0.4 mg per day have been administered in patients with dyslipidemia. […] Increases in LDL-C, both by beta quantification and calculation with the Friedewald equation, were also observed. Based on analysis of efficacy variables, pemafibrate appeared to have a lowering effect on Apo C3 that led to the conversion of VLDL particles to LDL particles, increasing the fraction of larger LDL particles, and reducing TG levels. Similarly, the reduction of Apo C3 led to increased removal of remnant-like particles and lowering of Apo B48. […] The observed increases in Apo A1 and HDL-C resulted from both increased production of Apo A1 in the liver and increased turnover of TG-rich lipoproteins, both of which were associated with a decreased CHD risk.
Because the urinary excretion of pemafibrate is low, as shown by nonclinical and clinical studies, it is expected that pemafibrate can be used safely even in patients with renal impairment. In addition, because the drug has minimal inhibitory effects on major drug metabolizing enzymes in the liver, it is unlikely to cause drug-drug interactions; however, drugs which are strong organic anion-transporting polypeptide (OATP) inhibitors (e.g., cyclosporine and rifampin) do interact with pemafibrate.

[2] = tested on: apolipoprotein (Apo) A1 transgenic mice; assay: TG decrease and HDL-C increase in Apo A1 transgenic mice; format: in vivo; settings: versus fenofibrate
[3] = Urinary excretion in nonclinical and clinical studies; format: in vivo

urinary excretion [3]: low
SMILES: CC[C@@H](Oc1cccc(CN(CCCOc2ccc(OC)cc2)c2nc3ccccc3o2)c1)C(=O)O [Pemafibrate, (2R)-2-[3-({1,3-benzoxazol-2-yl[3-(4-methoxyphenoxy)propyl]amino}methyl)phenoxy]butanoic acid]
TG change ([1]; Japanese and European patients): dose-dependent decreases
safety profile ([1]; total daily doses 0.1 mg to 0.4 mg, daily or divided twice daily): acceptable safety profile
potency in decreasing TG and increasing HDL-C [2]: more potent than fenofibrate
